# Laboratory results: patent US6376488B1, “Benzoxazine α-1 adrenergic compounds” (Abbott Laboratories, priority 2000, dated 2002)
# How the values were obtained:
# α1d (rat) adrenoreceptor = target: T1, α1d (rat) adrenoreceptor (Rattus norvegicus, UniProt P23944); test: [3H]-prazosin radioligand binding, cloned α1d (rat) adrenoreceptor in LTK cells; conditions: cloned receptor in LTK cell membranes, [3H]prazosin 0.2 nM
# T1 sequence (P23944 1-561): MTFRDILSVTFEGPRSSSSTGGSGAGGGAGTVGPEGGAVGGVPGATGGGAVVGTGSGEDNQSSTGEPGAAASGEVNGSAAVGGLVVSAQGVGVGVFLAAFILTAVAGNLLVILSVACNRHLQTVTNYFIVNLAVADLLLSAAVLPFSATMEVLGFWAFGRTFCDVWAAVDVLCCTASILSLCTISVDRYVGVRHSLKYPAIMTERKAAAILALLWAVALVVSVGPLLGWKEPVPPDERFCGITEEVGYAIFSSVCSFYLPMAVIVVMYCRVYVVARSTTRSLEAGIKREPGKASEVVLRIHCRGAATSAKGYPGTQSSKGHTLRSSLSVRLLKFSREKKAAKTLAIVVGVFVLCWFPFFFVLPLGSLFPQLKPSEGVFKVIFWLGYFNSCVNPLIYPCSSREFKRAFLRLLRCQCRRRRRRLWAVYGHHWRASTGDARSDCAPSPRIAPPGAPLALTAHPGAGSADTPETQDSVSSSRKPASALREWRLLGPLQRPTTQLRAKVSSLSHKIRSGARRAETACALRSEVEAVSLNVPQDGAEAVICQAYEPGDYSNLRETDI
# Experimental: (§1) Representative compounds of the invention were evaluated for α adrenoreceptor binding affinity in vitro using [^3H]-prazosin as the radioligand and following four cloned α1, adrenoreceptors expressed in LTK cells: α1a (rat), α1a (bovine), α1b : (hampster), and α1d (rat).
# (§2) The cDNA clones encoding the α1, adrenoreceptors were obtained from TULCO (Triangle Universities Licensing Consortium, Research Triangle Park, N.C.) and inserted into the eukaryotic expression vector SnaB30. In this vector, expression of the adrenoreceptor gene is under the transcriptional control of an SV40 early promoter. Positive drug selection is provided by a neomycin-resistance gene. Mouse fibroblast cells (LTK) were transfected with the α1 expression plasmids and grown in Dulbecco's modified Eagle's medium (DMEM) containing 10% fetal calf serum and 30 μM G418. Stable G418-resistant parental lines were generated with successful expression of adrenoreceptor protein monitored using radioligand binding techniques. Stable single cell clones derived from the parental lines were screened in adrenoreceptor binding assays to identify clones having high adrenoreceptor density. Roller bottle cultures of the cloned lines were used to provide cell membranes for subsequent adrenoreceptor binding characterization studies. A cell line containing the SnaB30 vector expressing the human erythropoietin gene served as a negative control.
# (§3) For adrenoreceptor binding assays, large scale membrane preparations were utilized in which 6 million cells were seeded into small (450 cm^2) Coming tissue culture roller bottles. DMEM (200 mL) containing 10% fetal calf serum and 300 μM G418 were added to each roller bottle. A 95% air/5% CO2 gas mixture (sterile) was injected into each roller bottle prior to sealing, and the bottles were then incubated at 37° C. on a roller rack for 5 days. Cells were refed with fresh medium after 3 days in culture.
# (§4) On the fifth day of culture, growth medium was removed from cells grown in roller bottles, and the cells were washed twice with PBS (Sigma, 120 mM NaCl, 2.7 mM KCl, 10 mM Na2HPO4-NaH2PO4, pH=7.4). Cells were detached from the roller bottles by incubating for 15 minutes at 37° C. in a Tris-EDTA solution (10 mM Tris, 100 mM NaCl, 1 mM EDTA, pH=7.4). The cell suspension from each roller bottle was decanted into tared centrifuge tubes and kept on ice. An aliquot of each cell suspension was generally taken for cell counting. Cells were centrifuged at 3000×G for 5 minutes at 2-4° C., washed with PBS and recentrifuged. The supernatant was decanted, and the pellet was weighed to determine the wet weight of cells. Cells were washed a final time in 40 vol 5 mM Tris-HCl, 5 mM EDTA, pH=7.7 and centrifuged at 40,000×G for 10 minutes (“vol” indicates volume/weight, e.g., a “vol” of 40 would indicate that the one gram of cells were washed with 40 mls of buffer). Cells were homogenized in of 50 mM Tris-HCl, 5 mM EDTA (pH=7.4) (10 mL) and diluted to 40 mL/tube. Homogenates were centrifuged at 40,000×G for 10 minutes. The supernatant was decanted and the pellets rehomogenized in 50 mM Tris-HCl (pH=7.4) and centrifuged as before. The supernatant was decanted and the homogenate was resuspended in 6.25 volumes (per gram wet weight) of 50 mM Tris-HCl and aliquots of the pooled homogenates frozen in liquid N2 and,stored at −70° C. until the time of assay.
# (§5) Receptor binding assays for α1 adrenoreceptors were performed essentially as described by Greengrass and Bremner (Eur. J. Pharmacol. 55: 323-326 (1979)). […] Following equilibration, bound radioligand was separated from free on GF/B filters (presoaked in 0.5% polyethyleneimine) using ither a Brandel or Packard cell harvester. Radioactivity was determined by standard liquid scintillation techniques. Data were analyzed as previously described (Hancock, A. A., Kyncl, J. J., Martin, Y. C. and DeBemardis, J. F., J. Receptor Res. 8: 23-46 (1988)). The in Table 1.
# [1] = target: T2, α1a (bovine) adrenoreceptor (Bos taurus, UniProt P18130); test: [3H]-prazosin radioligand binding, cloned α1a (bovine) adrenoreceptor in LTK cells; conditions: cloned receptor in LTK cell membranes, [3H]prazosin 0.2 nM
# T2 sequence (P18130 1-466): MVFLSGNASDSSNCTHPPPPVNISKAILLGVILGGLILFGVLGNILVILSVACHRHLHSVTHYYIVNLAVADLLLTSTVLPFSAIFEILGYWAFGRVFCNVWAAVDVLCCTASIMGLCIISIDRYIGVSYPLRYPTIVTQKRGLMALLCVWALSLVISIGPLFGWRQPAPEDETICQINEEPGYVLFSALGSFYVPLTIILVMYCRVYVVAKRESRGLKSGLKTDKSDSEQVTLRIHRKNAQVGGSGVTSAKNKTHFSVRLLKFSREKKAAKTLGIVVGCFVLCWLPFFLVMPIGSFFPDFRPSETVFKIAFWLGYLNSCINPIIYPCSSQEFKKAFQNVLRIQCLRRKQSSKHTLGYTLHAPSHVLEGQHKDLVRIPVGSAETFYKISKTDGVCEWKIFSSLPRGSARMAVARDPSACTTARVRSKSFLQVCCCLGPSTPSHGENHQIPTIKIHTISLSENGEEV
# Experimental: as §1, §2, §3, §4, §5
SMILES,Ki (α1d (rat) adrenoreceptor) [nM],Ki [1] [nM]
"COc1cccc2c1N1CCN(CCn3c(=O)[nH]c4c(sc5cccnc54)c3=O)CC1CO2.Cl.Cl.Cl (single isomer, unassigned; (+)) [Example 16, (+) 3-[2-(10-methoxy-1,2,4a,5-tetrahydropyrazino[2,1-c][1,4]benzoxazin-3(4H)-yl)ethyl]pyrido[2′,3′:4,5]thieno[3,2-d]pyrimidine-2,4(1H,3H)-dione trihydrochloride]",2.01,0.334
"COc1cccc2c1N1CCN(CCCCn3c(=O)[nH]c4c(sc5ncccc54)c3=O)CC1CO2.Cl.Cl.Cl (single isomer, unassigned; (+)) [Example 15, (+) 3-[4-(10-methoxy-1,2,4a,5-tetrahydropyrazino[2,1-c][1,4]benzoxazin-3(4H)-yl)butyl]pyrido[3′,2′:4,5]thieno[3,2-d]pyrimidine-2,4(1H,3H)-dione trihydrochloride]",1.3,0.289
"COc1cccc2c1N1CCN(CCCn3c(=O)[nH]c4c(sc5cccnc54)c3=O)CC1CO2.Cl.Cl.Cl (single isomer, unassigned; (-)) [Example 9, (−) 3-[3-(10-methoxy-1,2,4a,5-tetrahydropyrazino[2,1-c][1,4]benzoxazin-3(4H)-yl)propyl]pyrido[2′,3′:4,5]thieno[3,2-d]pyrimidine-2,4(1H, 3H)-dione trihydrochloride]",1.28,0.249
"Cl.Cl.O=c1[nH]c2c(sc3ncccc32)c(=O)n1CCCCN1CCN2c3ccccc3OCC2C1 (single isomer, unassigned; (+)) [Example 5, (+) 3-[4-(1,2,4a,5-tetrahydropyrazino[2,1-c][1,4]benzoxazin-3(4H)-yl)butyl]pyrido[3′, 2′:4,5]thieno[3,2-d]pyrimidine-2,4(1H,3H)-dione dihydrochloride]",4.26,2.72
